A value given as a limit tells only on which side of the number the result lay.

The results in this text go back to BindingDB's records for doi:10.1016/j.bmcl.2009.07.009 (Konkuk University, 2009).

Assay [1] has as its target T1, Replicase polyprotein 1ab (Severe acute respiratory syndrome coronavirus, UniProt P0C6X7). As to the kind of experiment: Inhibition of ATPase activity of SARS coronavirus helicase assessed as phosphate release by malachite green assay.
Assay [2] addresses T1, Replicase polyprotein 1ab. Put plainly: Inhibition of SARS coronavirus helicase assessed as duplex-DNA unwinding by FRET based assay.

Take `N#Cc1cccc(CNCc2cc(O)c3c(=O)c(O)ccc-3o2)c1` [3-{[(5,6-Dihydroxy-4-oxo-4H-chromen-2-ylmethyl)-amino]-methyl}-benzonitrile]: the IC50 in assay [1] and in assay [2] was more than 50 µM each time.

With `O=c1c(O)ccc2oc(CNCc3ccc(Cl)cc3)cc(O)c1-2` [2-[(4-Chloro-benzylamino)-methyl]-5,6-dihydroxy-chromen-4-one], the IC50 in assay [1] and in assay [2] was more than 50 µM each time.

Consider `O=c1c(O)ccc2oc(CNCc3cccc(Cl)c3)cc(O)c1-2` [2-[(3-Chloro-benzylamino)-methyl]-5,6-dihydroxy-chromen-4-one], for which the IC50 in assay [1] and in assay [2] was more than 50 µM each time.

One may read the IC50 as the concentration that inhibits the measured activity by half.
